# Assay results reported in patent US8415156B2, “Recombinant laminin-521” (Biolamina AB, priority 2010, dated 2013).
# Key:
# Oct4 and Nanog = assay: Real-time quantitative RT-PCR of pluripotency markers (Example 1); assay type: cell-based, human; details: after several single cell dissociation passages
# Procedure: Total RNA was isolated and cDNA was synthesized as described in Rodin et al., Nature Biotechnol., vol. 28, pp. 611-615 (2010). Real-time quantitative RT-PCR Taqman assays were performed using the Applied Biosystems 7300 Real-Time PCR System. All reactions were done in quadruplicate with predeveloped gene expression assay mix (Applied Biosystems) containing primers and a probe for the mRNA of interest. Additional reactions for each experiment included predeveloped gene expression assay mix for GAPDH, used to normalize the RNA input. All data were analyzed with 7300 System SDS Software version 1.4.
# [1] = test system: human iPS ChiPSW and CutB1.2 cells; assay: Long-term self-renewal of human iPS cells on LN-521; assay type: cell-based; details: mTeSR1
# [2] = test system: Oct4, Nanog, SSEA4; PAX6, SOX17, SOX7; assay: Expression of pluripotency and differentiation markers (Example 2); assay type: cell-based, human; details: compared with Matrigel passed as small clumps
# Procedure: For immunofluorescence studies, ES cells were cultured and fixed in 8-well slide chambers (BD Biosciences) or 96-well plate wells by 4% paraformaldehyde, permeabilized by 0.1% Triton-X and blocked by 10% bovine fetal serum (GIBCO Invitrogen Corporation) in phosphate-saline buffer (PBS) containing 0.1% Tween-20 (Sigma-Aldrich, St. Louis, www.sigmaaldrich.com) for one hour. Incubation with primary antibody was performed for 1.5 hours at room temperature. Incubation with secondary antibody and 4,6-diamidino-2-phenylindole (DAPI, Molecular Probes) was performed for 40 minutes. Between incubations, the specimens were washed with 0.1% Tween-20 in PBS buffer three to five times. Specimens were preserved in a fluorescence mounting medium (Dako, Glostrup, Denmark, http://www.dako.com), and observed under a fluorescence microscope (Leica, Heerbrugg, Switzerland, http://www.leica.com).
# Total RNA was isolated using Absolutely RNA Microprep Kit (Stratagene, La Jolla Calif., www.stratagene.com) according to the manufacturer's instructions. cDNA was synthesized using 0.2 μg of total RNA in 20 μl reaction mixture, containing oligo(dT)12-18 primers and Superscript II reverse transcriptase (GIBCO Invitrogen Corporation), according to the manufacturer's instructions. […] All data was analyzed with 7300 System SDS Software v 1.4. […]
# [3] = test system: hES cell lines HS181 and H1; assay: Karyotyping; assay type: cell-based, human; details: HS181 12 passages and H1 10 passages in O3; H1 7 passages in TeSR2
# Procedure: Karyotyping of the cell lines was carried out using standard Q-banding techniques. Samples of cells were treated with colcemid KaryoMAX (0.1 μg/ml; Gibco Invitrogen Corporation) for up to 4 hours, followed by dissociation with Trypsin/EDTA solution (Gibco Invitrogen Corporation). The cells were pelleted via centrifugation and re-suspended in pre-warmed 0.0375 M KCl hypotonic solution and incubated for 10 minutes. Following centrifugation, the cells were resuspended in fixative (3:1 methanol:acetic acid). Metaphase spreads were prepared on glass microscope slides and G-banded by brief exposure to trypsin and stained with 4:1 Gurr's/Leishmann's stain (Sigma-Aldrich Co.). A minimum of 10 metaphase spreads were analyzed and additional 20 were counted.
# hES cells [4] = assay: Embryoid body formation; assay type: cell-based, human; details: same three cultures as teratoma test
# Procedure: ES cells from LN-521 coated cell culture dishes were exposed to TrypLE™ Select for one minute at 37° C., 5% CO2, washes two times with a medium, broken into large pieces and cultured in suspension in low adhesion plates. The medium used for this was Knockout DMEM (GIBCO Invitrogen Corporation) supplemented with 2 mM L-glutamine, 20% fetal calf serum (GIBCO Invitrogen Corporation), 0.1 mM β-mercaptoethanol (GIBCO Invitrogen Corporation) and 1% non-essential amino acids (GIBCO Invitrogen Corporation). After 1-2 weeks in suspension, the embryoid bodies were transferred onto gelatin coated tissue cell culture 96-well plates (Sarstedt), cultured for 1-2 weeks, then fixed, stained with antibodies against markers of all three embryonic germ line layers (smooth muscle actin, MAP-2 and α-fetoprotein) and analyzed as described above for immunofluorescence.
# hES cells [5] = assay: In vivo imaging and migration assay; assay type: cell-based, human
# Procedure: 24-well plates were coated by extracellular matrix proteins and blocked by O3 medium containing bovine serum albumin. The ES cells were plated at cell density of 30,000-40,000 cells/cm^2 onto extracellular matrix-coated plates and left to adhere for half an hour in a cell incubator. After that, the plate was transferred into high content imaging system Operetta (PerkinElmer) equipped with environmental control unit, which allowed to keep 37° C., 5% CO2. For two movies that were made, the brightfield images were taken once in 15 minutes during 24 hours after plating using Harmony software (PerkinElmer), exported, and analyzed using ImageJ software (NIH, the US). For migration assay the images were taken every seven minutes during 18 hours after plating. Images acquired between the fifth and seventh hours after plating were analyzed using MTrackJ plug-in (University Medical Center, Rotterdam, The Netherlands). 100 attached cells on each coating were traced and mean distances from the current to the previous point of the track were calculated. Error bars show standard error of the mean s.e.m. (n=100).
substance,measurement,setting,value
"LN-521: protein formed by joining α5, β2 and γ1 chains together; human recombinant, produced in HEK293 cells",number of mRNA transcripts of Oct4 and Nanog compared with Matrigel,Oct4 and Nanog,higher numbers of transcripts
same,"passages cultured, ChiPSW cells",[1],3 passages
same,"passages cultured, CutB1.2 iPS cells",[1],5 passages
same,"expression levels of pluripotency markers Oct4, Nanog, and SSEA4",[2],stable expression levels
same,karyotype,[3],normal
same,"differentiation in vitro: embryoid bodies expressing markers of mesoderm, ectoderm and endoderm",hES cells [4],retained the competence to form embryoid bodies
same,migration of cells (in vivo imaging) compared with Matrigel,hES cells [5],much faster
same,motility of hES cells between the fifth and seventh hours after plating,"hES cells [5]; compared with Matrigel, LN-111, LN-511",higher than that of the cells on other coatings
